The results in this text go back to patent US20260325533A1, “CDK INHIBITOR COMPOUNDS” (ALEKSIA THERAPEUTICS, INC., priority 2023, published 2026).

pIC50: −log10 of the molar value. Like-named read-outs stand apart in the source and are kept apart here.

Holding throughout (format): biochemical
One assay deals with CDK2/CCNE1 (Homo sapiens, UniProt P24941). In words: CDK2 homogeneous time-resolved fluorescence (HTRF) kinase assay. The conditions noted are these: CDK2/CCNE. In outline: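 TR-FRET read-out (665 nm, or 665/615 ratio) of Eu-antibody detection of phospho-4E-BP1 (Thr37/46) ULight peptide. Enzyme 3 nM, ATP 1 mM, peptide 50 nM, 1% DMSO; 60 min reaction at 23 °C after 20 min compound preincubation. IC50 from 11-point half-log titrations, top typically 10 μM.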

For another assay, the target named is CDK1/CCNB1 (Homo sapiens, UniProt P06493). Briefly: CDK1 homogeneous time-resolved fluorescence (HTRF) kinase assay. Particulars: CDK1/CCNB. In a few lines:
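High-ATP (1 mM) HTRF assay with 0.5 nM CDK1/cyclin B1 and 50 nM ULight-4E-BP1 (Thr37/46) substrate, 60 min at 23 °C after 20-min compound preincubation. IC50 values come from dose-response curves.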
(In general: Time-resolved FRET reads energy transfer from a long-lived donor to a nearby acceptor.)

For a further assay, the target named is CDK4/CCND3 (Homo sapiens, UniProt P11802). In words: CDK4 homogeneous time-resolved fluorescence (HTRF) kinase assay. The conditions noted are these: CDK4/CCND. In outline: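 TR-FRET read (665 nm, or 665/615 ratio) of 4E-BP1 Thr37/46 phosphorylation by 1.5 nM CDK4/CCND3 at 1 mM ATP, 50 nM ULight peptide, 1% DMSO. Reaction ran 60 min at 23 °C after 20 min compound–enzyme preincubation. IC50 from 11-point half-log dilutions, top 10 μM.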

The target of a further assay is CDK6/CCND1 (Homo sapiens, UniProt Q00534). In words: CDK6 homogeneous time-resolved fluorescence (HTRF) kinase assay. Particulars: CDK6/CCND, 1 mM ATP. In a few lines: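 Assay conditions: HEPES buffer containing 10 mM MgCl2, 1 mM EGTA, 2 mM DTT, 0.01% Tween 20; 1 nM CDK6/CCND1, 50 nM peptide substrate, 1 mM ATP. Detection after 60 min reaction used 2 nM europium antibody with 340 nm excitation. Potency fitted from half-log series, 11 points.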

[1] abbreviates: 25-250 nM, read-out: CDK2/CCNE IC50, 25-250 nM.
Setting [2] is: >250 nM, read-out: CDK1/CCNB IC50 >250 nM.
The mark [3] stands for this setting: >250 nM, read-out: CDK4/CCND IC50, >250 nM.
Setting [4] is: >250 nM, read-out: CDK6/CCND IC50, >250 nM.
The mark [5] stands for this setting: <25 nM, read-out: CDK2/CCNE IC50, <25 nM.
The mark [6] stands for this setting: 25-250 nM, read-out: CDK4/CCND IC50, 25-250 nM.
Setting [7] is: 25-250 nM, read-out: CDK6/CCND IC50, 25-250 nM.

Chain of CDK1/CCNB1 (P06493 whole entry): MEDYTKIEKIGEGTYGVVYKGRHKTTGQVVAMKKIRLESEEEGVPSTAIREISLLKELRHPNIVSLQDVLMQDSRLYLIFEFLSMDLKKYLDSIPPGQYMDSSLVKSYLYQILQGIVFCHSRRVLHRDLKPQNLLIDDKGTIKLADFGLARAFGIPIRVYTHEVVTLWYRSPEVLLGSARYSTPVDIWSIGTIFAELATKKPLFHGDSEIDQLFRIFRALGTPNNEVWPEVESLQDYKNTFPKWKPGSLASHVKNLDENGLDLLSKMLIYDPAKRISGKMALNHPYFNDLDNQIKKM
Chain of CDK1/CCNB1 (P14635 whole entry partner): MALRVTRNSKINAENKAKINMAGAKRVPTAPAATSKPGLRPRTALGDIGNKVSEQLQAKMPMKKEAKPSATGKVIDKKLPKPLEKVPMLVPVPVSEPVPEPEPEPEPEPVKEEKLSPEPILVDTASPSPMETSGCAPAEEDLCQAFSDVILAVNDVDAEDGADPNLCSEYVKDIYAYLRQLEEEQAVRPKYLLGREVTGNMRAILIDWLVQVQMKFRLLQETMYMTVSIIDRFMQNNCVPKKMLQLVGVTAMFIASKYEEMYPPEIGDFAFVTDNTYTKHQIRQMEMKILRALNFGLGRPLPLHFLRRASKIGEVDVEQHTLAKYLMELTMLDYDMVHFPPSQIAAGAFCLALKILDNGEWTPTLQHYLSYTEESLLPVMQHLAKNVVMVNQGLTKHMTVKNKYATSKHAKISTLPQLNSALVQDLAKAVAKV
Chain of CDK6/CCND1 (Q00534 whole entry): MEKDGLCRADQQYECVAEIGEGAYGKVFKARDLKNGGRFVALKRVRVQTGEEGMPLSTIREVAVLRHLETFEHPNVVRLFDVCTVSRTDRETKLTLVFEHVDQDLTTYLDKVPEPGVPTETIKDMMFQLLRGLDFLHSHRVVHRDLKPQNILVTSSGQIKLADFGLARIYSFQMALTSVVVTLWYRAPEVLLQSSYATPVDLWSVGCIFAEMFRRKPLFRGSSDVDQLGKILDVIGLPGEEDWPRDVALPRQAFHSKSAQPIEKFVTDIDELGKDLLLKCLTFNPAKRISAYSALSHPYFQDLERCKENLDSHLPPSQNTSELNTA
Chain of CDK6/CCND1 (P24385 whole entry partner): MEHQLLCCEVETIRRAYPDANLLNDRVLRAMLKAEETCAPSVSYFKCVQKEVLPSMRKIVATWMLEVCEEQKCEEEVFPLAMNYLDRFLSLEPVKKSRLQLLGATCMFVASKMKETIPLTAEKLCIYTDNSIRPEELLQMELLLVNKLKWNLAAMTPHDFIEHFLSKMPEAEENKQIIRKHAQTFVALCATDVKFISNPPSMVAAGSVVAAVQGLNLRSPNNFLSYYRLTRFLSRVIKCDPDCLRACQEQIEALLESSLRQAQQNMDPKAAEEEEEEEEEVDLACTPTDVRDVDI
Chain of CDK4/CCND3 (P11802 whole entry): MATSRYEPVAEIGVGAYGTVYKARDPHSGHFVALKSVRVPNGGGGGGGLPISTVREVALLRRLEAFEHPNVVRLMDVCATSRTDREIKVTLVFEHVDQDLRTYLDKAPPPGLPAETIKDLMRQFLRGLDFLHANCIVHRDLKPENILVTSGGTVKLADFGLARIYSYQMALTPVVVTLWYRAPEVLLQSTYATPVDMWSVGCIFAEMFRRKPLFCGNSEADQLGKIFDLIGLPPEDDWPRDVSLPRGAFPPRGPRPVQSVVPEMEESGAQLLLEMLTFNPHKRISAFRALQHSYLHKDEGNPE
Chain of CDK4/CCND3 (P30281 whole entry partner): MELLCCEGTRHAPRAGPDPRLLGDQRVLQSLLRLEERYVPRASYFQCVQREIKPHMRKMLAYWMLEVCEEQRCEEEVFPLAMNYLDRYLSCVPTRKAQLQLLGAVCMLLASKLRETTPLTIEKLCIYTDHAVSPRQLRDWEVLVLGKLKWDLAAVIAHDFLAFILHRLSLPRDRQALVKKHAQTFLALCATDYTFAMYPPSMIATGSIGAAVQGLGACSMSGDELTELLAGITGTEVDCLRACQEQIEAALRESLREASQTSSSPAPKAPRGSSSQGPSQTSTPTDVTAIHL

Regarding `COc1cc(NS(=O)(=O)c2ccc(Nc3cc4c(-c5ccc6c(cnn6CC(O)(C(F)(F)F)C(F)(F)F)c5C)nccc4cn3)cc2)cc(OC)c1` [Ex 739, N-(3,5-dimethoxyphenyl)-4-((5-(4-methyl-1-(3,3,3-trifluoro-2-hydroxy-2-(trifluoromethyl)propyl)-1H-indazol-5-yl)-2,6-naphthyridin-3-yl)amino)benzenesulfonamide], the pIC50 on CDK2/CCNE1 (setting [1]) was 6.60 to 7.60; at CDK1/CCNB1 (setting [2]) it was below 6.60; on CDK4/CCND3 (setting [3]), below 6.60; at CDK6/CCND1 (setting [4]), below 6.60.
As for `Cc1c(-c2nccc3cnc(Nc4ccc(S(=O)(=O)Nc5cc(C(F)(F)F)ccn5)cc4)cc23)ccc2c1cnn2CC(O)(C(F)(F)F)C(F)(F)F` [Ex 740, 4-((5-(4-methyl-1-(3,3,3-trifluoro-2-hydroxy-2-(trifluoromethyl)propyl)-1H-indazol-5-yl)-2,6-naphthyridin-3-yl)amino)-N-(4-(trifluoromethyl)pyridin-2-yl)benzenesulfonamide], the pIC50 on CDK2/CCNE1 (>250 nM, read-out: CDK2/CCNE IC50, >250 nM) was below 6.60; at CDK1/CCNB1 (setting [2]), below 6.60; at CDK4/CCND3 (setting [3]) it was below 6.60; on CDK6/CCND1 (setting [4]), below 6.60.
As for `Cc1c(-c2nccc3cnc(Nc4ccc(S(=O)(=O)Nc5cc(N6CCOCC6)ccn5)cc4)cc23)ccc2c1cnn2CC(O)(C(F)(F)F)C(F)(F)F` [Ex 741, 4-((5-(4-methyl-1-(3,3,3-trifluoro-2-hydroxy-2-(trifluoromethyl)propyl)-1H-indazol-5-yl)-2,6-naphthyridin-3-yl)amino)-N-(4-morpholinopyridin-2-yl)benzenesulfonamide], the pIC50 was above 7.60 at CDK2/CCNE1 (setting [5]), below 6.60 on CDK1/CCNB1 (setting [2]), below 6.60 on CDK4/CCND3 (setting [3]) and below 6.60 at CDK6/CCND1 (setting [4]).
Regarding `COc1cc(NS(=O)(=O)c2ccc(Nc3cc4c(-c5ccc6c(cnn6CC(O)(C(F)(F)F)C(F)(F)F)c5C)nccc4cn3)cc2)nc(OC)c1` [Ex 742, N-(4,6-dimethoxypyridin-2-yl)-4-((5-(4-methyl-1-(3,3,3-trifluoro-2-hydroxy-2-(trifluoromethyl)propyl)-1H-indazol-5-yl)-2,6-naphthyridin-3-yl)amino)benzenesulfonamide], the pIC50 at CDK2/CCNE1 (setting [1]) was 6.60 to 7.60; on CDK1/CCNB1 (setting [2]), below 6.60; on CDK4/CCND3 (setting [3]), below 6.60; on CDK6/CCND1 (setting [4]), below 6.60.
`COc1cnc(NS(=O)(=O)c2ccc(Nc3cc4c(-c5ccc6c(cnn6CC(O)(C(F)(F)F)C(F)(F)F)c5C)nccc4cn3)cc2)nc1` [Ex 743, N-(5-methoxypyrimidin-2-yl)-4-((5-(4-methyl-1-(3,3,3-trifluoro-2-hydroxy-2-(trifluoromethyl)propyl)-1H-indazol-5-yl)-2,6-naphthyridin-3-yl)amino)benzenesulfonamide]: the pIC50 was above 7.60 on CDK2/CCNE1 (setting [5]), below 6.60 on CDK1/CCNB1 (setting [2]), below 6.60 on CDK4/CCND3 (setting [3]) and below 6.60 at CDK6/CCND1 (setting [4]).
For `Cc1c(-c2nccc3cnc(Nc4ccc(S(=O)(=O)Nc5nccc(C(F)(F)F)n5)cc4)cc23)ccc2c1cnn2CC(O)(C(F)(F)F)C(F)(F)F` [Ex 744, 4-((5-(4-methyl-1-(3,3,3-trifluoro-2-hydroxy-2-(trifluoromethyl)propyl)-1H-indazol-5-yl)-2,6-naphthyridin-3-yl)amino)-N-(4-(trifluoromethyl)pyrimidin-2-yl)benzenesulfonamide], the pIC50 at CDK2/CCNE1 (setting [1]) is 6.60 to 7.60; on CDK1/CCNB1 (setting [2]) it was below 6.60; at CDK4/CCND3 (setting [3]), below 6.60; at CDK6/CCND1 (setting [4]), below 6.60.
Take `COc1cc(OC)nc(NS(=O)(=O)c2ccc(Nc3cc4c(-c5ccc6c(cnn6CC(O)(C(F)(F)F)C(F)(F)F)c5C)nccc4cn3)cc2)n1` [Ex 745, N-(4,6-dimethoxypyrimidin-2-yl)-4-((5-(4-methyl-1-(3,3,3-trifluoro-2-hydroxy-2-(trifluoromethyl)propyl)-1H-indazol-5-yl)-2,6-naphthyridin-3-yl)amino)benzenesulfonamide]: the pIC50 at CDK2/CCNE1 (setting [1]) is 6.60 to 7.60; on CDK1/CCNB1 (setting [2]), below 6.60; on CDK4/CCND3 (setting [3]), below 6.60; at CDK6/CCND1 (setting [4]) it was below 6.60.
As for `Cc1c(-c2nccc3cnc(Nc4ccc(S(=O)(=O)N[C@@H](C)CCO)cc4)cc23)ccc2c1cnn2CC(C)(C)O` [Ex 746, (S)-4-((5-(1-(2-hydroxy-2-methylpropyl)-4-methyl-1H-indazol-5-yl)-2,6-naphthyridin-3-yl)amino)-N-(4-hydroxybutan-2-yl)benzenesulfonamide], the pIC50 at CDK2/CCNE1 (setting [5]) was above 7.60; at CDK1/CCNB1 (setting [2]), below 6.60; on CDK4/CCND3 (setting [6]), 6.60 to 7.60; at CDK6/CCND1 (setting [7]), 6.60 to 7.60.
Turning to `Cc1c(-c2nccc3cnc(Nc4ccc(S(=O)(=O)N[C@H](C)CCO)cc4)cc23)ccc2c1cnn2CC(C)(C)O` [Ex 747, (R)-4-((5-(1-(2-hydroxy-2-methylpropyl)-4-methyl-1H-indazol-5-yl)-2,6-naphthyridin-3-yl)amino)-N-(4-hydroxybutan-2-yl)benzenesulfonamide], the pIC50 was above 7.60 at CDK2/CCNE1 (setting [5]), below 6.60 on CDK1/CCNB1 (setting [2]), 6.60 to 7.60 at CDK4/CCND3 (setting [6]) and 6.60 to 7.60 on CDK6/CCND1 (setting [7]).
Regarding `Cc1c(-c2nccc3cnc(Nc4ccc(NS(=O)(=O)c5nccs5)cc4)cc23)ccc2c1cnn2CC(C)(C)O` [Ex 748, N-(4-((5-(1-(2-hydroxy-2-methylpropyl)-4-methyl-1H-indazol-5-yl)-2,6-naphthyridin-3-yl)amino)phenyl)thiazole-2-sulfonamide], the pIC50 was above 7.60 on CDK2/CCNE1 (setting [5]), below 6.60 at CDK1/CCNB1 (setting [2]), below 6.60 on CDK4/CCND3 (setting [3]) and below 6.60 on CDK6/CCND1 (setting [4]).
`Cc1c(-c2nccc3cnc(Nc4ccc(S(C)(=O)=O)c(Br)c4)cc23)ccc2c1cnn2CC(C)(C)O` [Ex 749, 1-(5-(7-((3-bromo-4-(methylsulfonyl)phenyl)amino)-2,6-naphthyridin-1-yl)-4-methyl-1H-indazol-1-yl)-2-methylpropan-2-ol]: the pIC50 is 6.60 to 7.60 at CDK2/CCNE1 (setting [1]), below 6.60 on CDK1/CCNB1 (setting [2]), below 6.60 at CDK4/CCND3 (setting [3]) and below 6.60 at CDK6/CCND1 (setting [4]).
On to `Cc1c(-c2nccc3cnc(Nc4ccc(S(C)(=O)=O)cc4Br)cc23)ccc2c1cnn2CC(C)(C)O` [Ex 750, 1-(5-(7-((2-bromo-4-(methylsulfonyl)phenyl)amino)-2,6-naphthyridin-1-yl)-4-methyl-1H-indazol-1-yl)-2-methylpropan-2-ol], for which the pIC50 is 6.60 to 7.60 on CDK2/CCNE1 (setting [1]), below 6.60 at CDK1/CCNB1 (setting [2]), below 6.60 on CDK4/CCND3 (setting [3]) and below 6.60 on CDK6/CCND1 (setting [4]).
As for `Cc1c(-c2nccc3cnc(Nc4ccc(NS(=O)(=O)c5cccc(N6CCN(C)CC6)c5)cc4)cc23)ccc2c1cnn2CC(C)(C)O` [Ex 751, N-(4-((5-(1-(2-hydroxy-2-methylpropyl)-4-methyl-1H-indazol-5-yl)-2,6-naphthyridin-3-yl)amino)phenyl)-3-(4-methylpiperazin-1-yl)benzenesulfonamide], the pIC50 was above 7.60 at CDK2/CCNE1 (setting [5]), below 6.60 on CDK1/CCNB1 (setting [2]), below 6.60 on CDK4/CCND3 (setting [3]) and below 6.60 at CDK6/CCND1 (setting [4]).
Turning to `Cc1c(-c2nccc3cnc(Nc4ccc(NS(=O)(=O)c5cccc(N6CCOCC6)c5)cc4)cc23)ccc2c1cnn2CC(C)(C)O` [Ex 753, N-(4-((5-(1-(2-hydroxy-2-methylpropyl)-4-methyl-1H-indazol-5-yl)-2,6-naphthyridin-3-yl)amino)phenyl)-3-morpholinobenzenesulfonamide], the pIC50 on CDK2/CCNE1 (setting [5]) was above 7.60; on CDK1/CCNB1 (setting [2]) it was below 6.60; at CDK4/CCND3 (setting [3]), below 6.60; on CDK6/CCND1 (setting [4]), below 6.60.
For `Cc1c(-c2nccc3cnc(Nc4ccc(NS(=O)(=O)c5cccnn5)cc4)cc23)ccc2c1cnn2CC(C)(C)O` [Ex 754, N-(4-((5-(1-(2-hydroxy-2-methylpropyl)-4-methyl-1H-indazol-5-yl)-2,6-naphthyridin-3-yl)amino)phenyl)pyridazine-3-sulfonamide], the pIC50 is above 7.60 at CDK2/CCNE1 (setting [5]); 6.60 to 7.60 at CDK1/CCNB1 (25-250 nM, read-out: CDK1/CCNB IC50, 25-250 nM); 6.60 to 7.60 at CDK4/CCND3 (setting [6]); 6.60 to 7.60 at CDK6/CCND1 (setting [7]).
